From patent US10414739B2, “Compounds as inhibitors of the YAP/TAZ-TEAD interaction and their use in the treatment of malignant mesothelioma” (INVENTIVA, priority 2015, dated 2019)
Counter-ions that a name gives are not always drawn.

Columns and labels:
[1] = target: T1, YAP-TEAD interaction (human YAP2-His6 (50-114) / human TEAD1-GST (209-426)) (Homo sapiens, UniProt P28347); assay: YAP-TEAD AlphaLISA assay; type: binding; details: YAP-TEAD AlphaLISA; for Emax: 2 h, maximal % inhibition, read-out: Max Act.; for IC50: 2 h equilibration at room temperature
T1 construct: GST-TEAD1 (209-426) produced in E. coli; made in house; host or cells: E. coli
Protocol: YAP-TEAD AlphaLISA Assay for IC50 Value Determination.
YAP-TEAD binding and inhibition was assessed by monitoring the engagement of YAP2 peptide (human YAP2-His6 (50-114) produced in E. coli) with TEAD (human TEAD1-GST (GST-TEAD1 (209-426) produced in E. coli) using the AlphaLisa technology (Perkin-Elmer). Specifically, in a 384 well (Axygen) 5 μl of compounds were dispensed in 100% DMSO following a semi log serial dilution, with a top concentration of […] (10 concentrations). A ‘3 partners solution’ was prepared by mixing AlphaScreen Glutathione Donor beads 15 μg/ml (PerkinElmer), Anti-6×His AlphaLisA Acceptor beads 15 μg/ml (PerkinElmer) and Human YAP2 9 nM in 100 mM NaCl, 25 mM Hepes, 0.1% BSA, 0.5% NoNidet®P40 buffer. In the 384 assay plate (Proxiplate, Perkin-Elmer)) 2 μl of compound at each concentration, 6 μl of buffer, 6 μl of hTEAD1-GST 9 nM and 6 μl of ‘3 partner solution’ were mixed. After 2 h equilibration at room temperature in the dark the plates were read on an Envision instrument (Excitation @ 680 nm/Emission @ 570 nm, Perkin Elmer).
Results were expressed as % inhibition=100×((HighControl−Cpd)/(HighControl−LowControl)), were High control is the maximum response obtained with all components and Low control is the basal response obtained with all components without GST-Tead1.
Cpd is the response obtained for test compounds.
IC50 (half maximal inhibitory concentration) was determined by fitting the concentration response curves using a 3-parameter curve fit equation and determining concentration corresponding to 50% inhibition.

T1 sequence (P28347 209-426): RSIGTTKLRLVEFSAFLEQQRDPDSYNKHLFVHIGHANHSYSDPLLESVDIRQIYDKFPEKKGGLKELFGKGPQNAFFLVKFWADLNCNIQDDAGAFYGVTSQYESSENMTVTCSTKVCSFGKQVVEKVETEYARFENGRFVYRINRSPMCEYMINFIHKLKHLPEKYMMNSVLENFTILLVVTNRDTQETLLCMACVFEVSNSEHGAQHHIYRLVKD

Row | SMILES | Emax [1] | IC50 [1] | melting point
1 | COCCN(/N=C/c1ccc(O)c(OC)c1)C1=NS(=O)(=O)c2ccc(C)cc21 [Example 28, 2-methoxy-4-[(E)-[2-methoxyethyl-(5-methyl-1,1-dioxo-1,2-benzothiazol-3-yl) hydrazono]methyl]phenol] | 94% | 2.65 µM | 
2 | CCN(/N=C/c1ccc(O)c(OC)c1)C1=NS(=O)(=O)c2ccccc21 [Example 3, 4-[(E)-[(1,1-dioxo-1,2-benzothiazol-3-yl)-ethyl-hydrazono]methyl]-2-methoxy-phenol] | 88% | 5 µM | 
3 | COc1cc(/C=N/N(CCN2CCOCC2)C2=NS(=O)(=O)c3ccc(C)cc32)ccc1O [Example 26, 2-methoxy-4-[(E)-[(5-methyl-1,1-dioxo-1,2-benzothiazol-3-yl)-(2-morpholinoethyl)hydrazono]methyl]phenol hydrochloride] | 95% | 0.399 µM | 
4 | COCCCN(/N=C/c1ccc(O)c(OC)c1)C1=NS(=O)(=O)c2ccccc21 [Example 10] | 92% | 5 µM | 
5 | COc1cc(/C=N/N(C)C2=NS(=O)(=O)c3c(C)cc(F)cc32)ccc1O [Example 20, 4-[(E)-[(5-fluoro-7-methyl-1,1-dioxo-1,2-benzothiazol-3-yl)-methyl-hydrazono]methyl]-2-methoxy-phenol] | 95% | 3.41 µM | > 260 °C
6 | COc1ccc2c(c1)C(N(CCO)/N=C/c1ccc(O)c(OC)c1)=NS2(=O)=O [Example 11, 4-[(E)-[2-hydroxyethyl-(5-methoxy-1,1-dioxo-1,2-benzothiazol-3-yl) hydrazono]methyl]-2-methoxy-phenol] | 94% | 0.475 µM | 
7 | COc1cc(/C=N/N(CCCO)C2=NS(=O)(=O)c3ccccc32)ccc1O [Example 5, 4-[(E)-[(1,1-dioxo-1,2-benzothiazol-3-yl)-(3-hydroxypropyl)hydrazono]-methyl]-2-methoxy-phenol] | 88% | 5.5 µM | 

The next lines start with the values.

Row | Emax [1] | IC50 [1] | melting point | SMILES
8 | 61% | 62.2 µM |  | COc1cc(/C=N/N(C)C2=NS(=O)(=O)c3cc(-c4ccccc4)ccc32)ccc1O [Example 39, 4-[(E)-[(1,1-dioxo-6-phenyl-1,2-benzothiazol-3-yl)-methyl-hydrazono]-methyl]-2-methoxy-phenol]
9 | 84% | 2.47 µM |  | COc1cc(/C=N/N(C)C2=NS(=O)(=O)c3ccc(F)cc32)ccc1O [Example 42, 4-[(E)-[(5-fluoro-1,1-dioxo-1,2-benzothiazol-3-yl)-methyl-hydrazono]-methyl]-2-methoxy-phenol]
10 | 91% | 0.13 µM |  | COc1cc(/C=N/N(CCO)C2=NS(=O)(=O)c3c(OC)cc(C)cc32)ccc1O [Example 29, 4-[(E)-[2-hydroxyethyl-(7-methoxy-5-methy-1,1-dioxo-1,2-benzothiazol-3-yl) hydrazono]methyl]-2-methoxy-phenol]
11 | 97% | 4.57 µM | > 260 °C | COc1cc(/C=N/N(C)C2=NS(=O)(=O)c3cc(C(=O)O)ccc32)ccc1O [Example 34, 3-[[(E)-(4-hydroxy-3-methoxy-phenyl)methyleneamino]-methyl-amino]-1,1-dioxo-1,2-benzothiazole-6-carboxylic acid]
